From PMC9456491, “Targeting the Mitochondrial Protein VDAC1 as a Potential Therapeutic Strategy in ALS” (International Journal of Molecular Sciences, 2022)

Legend:
mice = conditions: mouse, in vivo; cited from earlier work
From the text: Mutant SOD1^G93A female mice were divided into three groups (10 mice per group): a control group (DMSO), VBIT-4-, and VBIT-12-treated groups.

[1] = test system: mutant SOD1^G93A transgenic mice; test: SOD1^G93A mouse ALS model, drinking water treatment; format: in vivo; conditions: SOD1^G93A female mice, drinking water 0.0625 mg/mL, about 20 mg/kg daily; n = 10; vs DMSO
Procedure: (§1) Mutant SOD1^G93A transgenic mice (B6SJL-TgN-SOD1-G93A-1Gur) were obtained from The Jackson Laboratory (Bar Harbor, ME, USA) for the experiments. All experiments were approved by the Animal Care and Use Committee of Ben-Gurion University of the Negev, as required by Israeli legislation, and all efforts were taken to minimize animal suffering.
VBIT-4 and VBIT-12 were dissolved in DMSO (80 mg/mL) and then diluted in drinking water while being added in a dropwise manner into the acidic water to a final concentration of 0.0625 mg/mL. Considering an estimated daily water consumption of a 25 g mouse as 6–8 mL per mouse, the daily dose of VBIT-4 and VBIT-12 was determined. Assuming a mouse drinks about 8 mL of water daily, it consumed 20 mg/kg of the compound. Control untreated WT mice received water containing DMSO (0.36%) at the final concentration as in VBIT-4 or VBIT-12 drinking solutions. Mutant SOD1^G93A female mice were randomly divided to receive drinking water containing VBIT-4, VBIT-12, or DMSO for the control. Water consumption was verified daily.
Mean age of disease onset, defined as the time when mice reached peak body weight (A, B), and disease end stage, defined as the time when the mouse could not right itself within 20 s when placed on its side (C, D) of mutant SOD1G93A mice without (control, n = 10, blue) and with treatment of VBIT‐4 (n = 10, red) or VBIT‐12 (n = 10, green) through drinking water. The results are the means ± SD. (E–G) Mean (± SD) duration of early disease (from onset to 10% weight loss) (E), duration of late disease (from 10% weight loss to end stage) (F), and disease progression (from onset to end stage) (G). At each time point, the p‐ value was determined by a Student’s t‐test. Error bars denote SDs. Plot of averaged forelimb (H) and hindlimb (I) grip strength for SOD1G93A female mice untreated (n = 10, blue), treated with VBIT‐4 (n = 10, red), or treated with VBIT‐12 (n = 10, green) through the drinking water. SOD1G93A mice were monitored up to the end stage. The untreated SOD1G93A mice received water with the same concentration of DMSO as controls. At each time point, the p‐value was determined by a Student’s t‐test. Error bars denote SDs.
Table S1. Antibodies used in the study

VDAC1 [2] = test: VDAC1 oligomerization in spinal cord mitochondria (EGS crosslinking); format: biochemical; conditions: spinal cord mitochondria 1 mg/mL from SOD1^G93A mice, VBIT-4 20 μM, 10 min pre-incubation, PBS pH 8.3, 20 min, 30 °C, immunoblot, dimer quantification, n = 3
Procedure: (§2) Figure 3 VDAC1 oligomerization is increased in mutant SOD1^G93A spinal cord mitochondria. […] A cell viability analysis was performed using the CellTiter 96 AQueous One-Solution cell proliferation assay using a plate reader at 490 nm. (B,C) Spinal cord mitochondria (1 mg/mL) from non-transgenic, SOD1^WT or SOD1^G93A rats were incubated for 10 min at 30 °C in 10 mM Tricine, pH 8.2, with the indicated concentration of the crosslinking reagent EGS (B) or DSP (C). Sample buffer for electrophoresis containing 2-mercaptoethanol, except for DSP (S-S-containing reagent), was added, and the samples were subjected to SDS/PAGE (10% gel) and immunoblot analysis using anti-VDAC1 antibodies. (D,E) Spinal cord mitochondria (1 mg/mL, n = 3) from non-transgenic or SOD1^G93A mice were incubated for 20 min at 30 °C in PBS, pH 8.3, with the indicated concentration of EGS, and subjected to SDS-PAGE (10%), immunoblotting (D), and quantitative analysis (E). (F,G) Spinal cord mitochondria isolated from SOD1^G93A mice were pre-incubated with VBIT-4 (10 min, 20 μM) and subjected to cross linking as described in D. Samples were subjected to SDS/PAGE 4–15% gradient gel and immunoblotting using anti-VDAC1 antibodies (F) and to dimer quantitative analysis (G). VDAC1 dimer levels were quantified using ImageJ software. The positions of VDAC1 monomers, dimers, trimers, tetramers, and higher oligomers are indicated. […]

VDAC1 oligomerization = conditions: ref [49]; cited from earlier work
[3] = test system: iPSC-derived motor neurons from ALS patients carrying mutations in TDP-43; design: method as in PMID 33031745; conditions: TDP-43 mutations, ref [58]; cited from earlier work
[4] = test system: release of mitochondrial DNA (mtDNA); cGAS/STING; design: method as in PMID 34217890; conditions: ref [45]; cited from earlier work
VDAC1 [5] = test system: VDAC1; design: method as in PMID 27738100, PMID 30293774, PMID 31857488, PMID 34217890; conditions: ref [49], [43], [44], [45]; cited from earlier work
[6] = test system: motor-neuron-like NSC-34 cells expressing human SOD1^G93A; test: Viability of NSC-34 cells expressing mutant SOD1^G93A; format: cell-based; conditions: NSC-34, human SOD1^G93A; VBIT-12 15 µM, 12 h, 24 h post-transfection; 490 nm; n = 3, means ± SEM
Procedure: as §2

[7] = test system: mutant SOD1^G93A transgenic mice; test: SOD1^G93A mouse ALS model, IP treatment; format: in vivo
Procedure: Mean age of disease onset, defined as the time when mice reached peak body weight as a function of time (A,B), and disease end stage, defined as the time when the mouse could not right itself within 20 s when placed on its side (C,D) considering mutant SOD1^G93A mice IP-injected every second day with 200 µL DMSO 4% (control, n = 10, blue) or with VBIT-12 (26 mg/kg) (n = 10, green). The results are the means ± SD. (E–G) The means ± SD for the duration of early disease (from onset to 10% weight loss) (E), duration of late disease (from 10% weight loss to end stage) (F), and disease progression (from onset to end stage) (G) are presented. Plots of the averaged forelimb (H) and hindlimb (I) grip strength for SOD1^G93A female mice untreated (n = 10, blue) or treated with VBIT-12 (n = 10, green). SOD1^G93A mice were monitored up to the end stage. At each time point, the p-value was determined by Student’s t-test with SD. * p < 0.05; ns, non-significant.
as §1
For intraperitoneal (IP) injection, VBIT-12 (80 mg/mL) in DMSO was diluted with saline, pH 7.0, to a final concentration of 3.25 mg/mL. Mice received 200 µL by IP injection resulting in a final VBIT-12 concentration of ~26 mg/Kg. VBIT-12 was IP injected every second day starting from day 60 for 12 weeks, and then the VBIT-12 final concentration was reduced to ~13 mg/Kg. The control group was IP injected with around 200 µL of DMSO (4%).

[8] = SOD1^G93A female mice, IP 26 mg/kg every other day from day 60, then ~13 mg/Kg, n = 10, during disease progression, Student's t-test
[9] = SOD1^G93A mice, IP 26 mg/kg every other day from day 60 for 12 weeks, then ~13 mg/Kg, n = 10, vs DMSO 4%

Compound | tolerability (mice) | disease onset (peak body weight) [1] | survival (disease end stage) [1] | inhibition of VDAC1 oligomerization (VDAC1 [2]) | effect on cells under physiological conditions (VDAC1 oligomerization) | prevention of VDAC1 oligomerization and apoptotic cell death (VDAC1 oligomerization) | prevention of cytosolic Ca^2+ elevation and ROS production (VDAC1 oligomerization) | prevention of cytosolic accumulation of mtDNA and inflammation [3] | inhibition of mtDNA release and inflammation [4] | inhibition of VDAC1 conductance (VDAC1 [5]) | muscle endurance, hindlimb grip strength [1] | prevention of mutant SOD1 cell toxicity (cell survival) [6] | forelimb grip (pulling) strength [7, 8] | hindlimb grip (pulling) strength [7, 8] | maintenance of limb muscle strength over time ([7]; SOD1^G93A mice, IP 26 mg/kg every other day from day 60, then ~13 mg/Kg, n = 10, vs DMSO 4%) | disease onset [7, 9] | survival [7, 9] | muscle function and survival (summary) ([7]; SOD1^G93A transgenic mice, "daily treatment" as worded in the discussion)
O=C(CC(CO)N1CCN(c2ccc(OC(F)(F)F)cc2)CC1)Nc1ccc(Cl)cc1 (stereo not drawn) [VBIT-4] | well tolerated in mice | no effect on disease onset | no effect on disease onset (Figure S3A,B) or survival | inhibited the oligomerization of VDAC1 | no effect on cells under physiological conditions | prevent both VDAC1 oligomerization and apoptotic cell death | prevent VDAC1 oligomerization, and, thereby, apoptosis and apoptosis-associated processes such as cytosolic Ca^2+ elevation and ROS production | prevented the cytosolic accumulation of mtDNA and inflammation | inhibit the release of mitochondrial DNA (mtDNA) via preventing VDAC1 oligomerization and inhibiting inflammation | inhibit VDAC1 conductance |  |  |  |  |  |  |  | 
O=C(O)CNC(=O)C1(Nc2ccccc2)CCN(Cc2cccc3ccccc23)CC1 [VBIT-12] |  | no effect on disease onset | no effect on disease onset (Figure S3A,B) or survival |  | no effect on cells under physiological conditions | prevent both VDAC1 oligomerization and apoptotic cell death | prevent VDAC1 oligomerization, and, thereby, apoptosis and apoptosis-associated processes such as cytosolic Ca^2+ elevation and ROS production |  |  | inhibit VDAC1 conductance | some benefit on muscle endurance as measured by grip strength in the hindlimbs | partially prevented the mutant SOD1 cell toxicity effect | significantly greater pulling strength | significantly greater pulling strength | maintained their limb muscle strength for a significantly more extended period of time | positive tendency in delaying disease onset (Figure 5A,B) and survival of SOD1^G93A mice, although this was not statistically significant | positive tendency in delaying disease onset (Figure 5A,B) and survival of SOD1^G93A mice, although this was not statistically significant | significantly improved muscle function, without extending survival
